Measured values: patent publication US20050124638A1, “Benzimidazoles and analogs thereof as antivirals” (priority 2003, published 2005)
Where two headings read alike, the source gives them in different places.

Columns and labels:
[1] = molecular target: HCV IRES stem IIa RNA target; assay: Mass spectrometry based binding assay; conditions: for binding percentages of ligand to target: ligand 50 μM, IIa target 2.5 μM, Table 1
[2] = system: HCV RNA levels in Ntat2ANeo replicon containing cell line; assay: Replicon assay (Ntat2ANeo replicon cells, quantitative RT-PCR of HCV RNA); type: cell-based; conditions: Hepatitis C virus; Table 8
[3] = MTT toxicity assay; type: cell-based
Text: The color was quantified by spectrophotometric means. For each cell type a linear relationship between cell number and absorbance is established, enabling quantification of changes of proliferation.

[4] = Single dose in vivo pharmacokinetic study; conditions: rats, single 3.0 mg/kg IV, mean; for clearance / Vd: rat, plasma; for Vd: read-out: Vdss
Method: A single dose pharmacokinetic study was performed to investigate the pharmacokinetics of representative compounds. Of particular interest was […] the ability of the compounds to accumulate in liver, which is the target tissue for HCV chemotherapy as it is the primary reservoir of virus. 3-4 rats per group were administered a single dose (3 mg/kg intravenously, IV or 6 mg/kg orally, PO). Blood samples were taken at 0.25, 0.5, 1, 2, 3, 4, 6, and 8 h timepoints, and pharmacokinetic parameters calculated. Both representative compounds were rapidly distributed to tissues, as evidenced by the high clearance rates and volumes of distribution, and low levels of excretion (ca 10% of total drug in urine and feces at 8 h). Major tissues were examined for presence of drug. […] The tissue accumulation for the IV dose is shown in FIG. 1, as a function of concentration and percent of total administered dose.

[5] = Table 8, read-out: Kd to IIa target
[6] = constrained vs unconstrained N1/N2 side chains, read-out: KD

SMILES	Kd [1, 5] [µM]	IC50 [2] [µM]	CC50 at 48 h [3] [µM]	also measured
CN(C)CC1CNc2nc3ccc(OCCCNC4CCN(Cc5ccccc5)CC4)cc3n2C1 (stereo not shown) [IBIS00528633]	4	13.7	> 100	
Nc1nc2ccccc2n1CCOc1ccccc1				binding percentages of ligand to target [1]: 6%
CN(C)CCCn1c(N)nc2ccc3c(c21)CC(CN(C)CCN(C)C)O3 (stereo not shown) [IBIS00560048]	11	23	> 100	
CN(C)CCCn1c(N)nc2ccccc21 [drawing 71]				MS Target Selectivity ([1]; Table 3): ˜3; Kd ([1]; Table 3, read-out: Est. KD): ~100 µM
COc1ccc2nc(N)n(CCCN(C)C)c2c1				MS Target Selectivity ([1]; Table 2): ˜10; Kd ([1]; Table 2, read-out: Est. KD): ~40 µM
CN(C)CCCOc1ccc2nc3n(c2c1)CC(CN(C)C)CN3 (stereo not shown) [IBIS00408169]	4.5	28.7	> 100	
CN(C)CCCOc1ccc2nc3n(c2c1)CC(CN(C)C)CN3 (stereo not shown) [drawing 124]				Kd [1, 6]: 0.67 µM
CN(C)CCCn1c(N)nc2ccc(OCCCN(C)Cc3ccco3)cc21				clearance [4]: 34.5 mL/min/kg; Vd [4]: 82.8 L/kg; % AUC Extrap [4]: 80.0%; AUC [4]: 311 ng·h/mL; AUC Extrap [4]: 1928 ng·h/mL; Co [4]: 201 ng/mL; MRT [4]: 3.1 h; T1/2 [4]: 37.5 h
CN(C)CC1CNc2nc3ccc(OCCCN(C)Cc4ccccn4)cc3n2C1 (stereo not shown) [IBIS00528637]	0.56	14.2	> 100	
CN(C)CC1CNc2nc3ccc(OCCCN(C)Cc4cccn4C)cc3n2C1 (stereo not shown) [IBIS00554842]	0.78	4	50	
CN(CCCOc1ccc2nc3n(c2c1)CC(CN1CCCCC1)CN3)Cc1ccccn1 (stereo not shown) [IBIS00554811]	4.3	24	> 100	
CN(C)CCCn1c(N)nc2ccc3c(c21)CC(CN(C)Cc1cccn1C)CO3 (stereo not shown) [IBIS00560031]	18	21.7	> 100	
CN(C)CCCOc1ccc2nc(N)n(CCCN(C)C)c2c1 [IBIS00403514]	3.8	37.1		
CN(C)CC1CNc2nc3ccc(OCCCN(C)Cc4cccs4)cc3n2C1 (stereo not shown) [IBIS00554886]	5	15.3	> 100	
CCN(CC)CCn1c(N)nc2ccccc21				binding percentages of ligand to target [1]: 15%
CN(C)CCCn1c(N)nc2ccc3c(c21)CC(CN(C)C)O3 (stereo not shown) [IBIS00560047]			> 100	
CN(C)CCCn1c(N)nc2ccccc21 [drawing 67]				MS Target Selectivity ([1]; Table 2): ˜3; Kd ([1]; Table 2, read-out: Est. KD): ~100 µM
CN(C)CCCn1c(N)nc2ccc3c(c21)CC(CN(C)Cc1ncc[nH]1)CO3 (stereo not shown) [IBIS00560122]	19.6	> 100	> 100	
CN(C)CC1CNc2nc3ccc(OCCCN(C)Cc4ncc[nH]4)cc3n2C1 (stereo not shown) [IBIS00554843]	3.1	> 100	> 100	
CN(C)CC1CNc2nc3ccc(OCCCN(C)Cc4nccs4)cc3n2C1 (stereo not shown) [IBIS00554888]	8.8	> 100	> 100	
CN(C)CCCn1c(N)nc2ccc3c(c21)CC(CN(C)CCN(C)C)CO3 (stereo not shown) [IBIS00560025]	9.4	71.2	> 100	
CN(C)CCCOc1ccc2nc(N)[nH]c2c1				MS Target Selectivity ([1]; Table 3): ˜2; Kd ([1]; Table 3, read-out: Est. KD): > 500 µM
CN(CCCOc1ccc2nc3n(c2c1)CC(CN1CCCCC1)CN3)Cc1ccco1 (stereo not shown) [IBIS00554813]	5.1	18.2	> 100	

SMILES	Kd [1, 5] [µM]	IC50 [2] [µM]	CC50 at 48 h [3] [µM]	also measured
CN(C)CCCn1c(N)nc2ccc3c(c21)CC(CCN)CO3 (stereo not shown) [IBIS00560024]	3.4	> 100	> 100	
CN(C)CCCn1c(N)nc2ccc3c(c21)CC(CN(C)C(=N)N)CO3 (stereo not shown) [IBIS00560101]	5.5	> 100	> 100	
CN(C)CCCn1c(N)nc2ccc3c(c21)CC(CN(C)Cc1cccn1C)O3 (stereo not shown) [IBIS00560102]	10.4	3.3	> 100	
CN(C)CCCn1c(N)nc2ccc3c(c21)CC(CN(C)C)CO3 (stereo not shown) [IBIS00560020]	2.2	9	> 100	
CN(C)CCCOc1ccc2ncn(CCCN(C)C)c2c1				MS Target Selectivity ([1]; Table 3): 1; Kd ([1]; Table 3, read-out: Est. KD): > 500 µM
CN(C)CCCOc1ccc2nc(N)n(CCCN(C)C)c2c1 [drawing 125]				Kd [1, 6]: 3.6 µM
CN(C)CC1CNc2nc3ccc(OCCCN(C)Cc4cccc(Br)n4)cc3n2C1 (stereo not shown) [IBIS00560002]	110	11.6	> 100	
CN(C)CC1CNc2nc3ccc(OCCCN4CCC(N5CCCC5)CC4)cc3n2C1 (stereo not shown) [IBIS00528634]	1.7	19.2	> 100	
Nc1nc2ccccc2n1CCCN1CCCC1				binding percentages of ligand to target [1]: 15%
CN(C)CC1CNc2nc3ccc(OCCCN(C)Cc4ccccn4)cc3n2C1 (stereo not shown) [drawing 164]				clearance [4]: 160 mL/min/kg; Vd [4]: 137 L/kg; % AUC Extrap [4]: 47%; AUC [4]: 165 ng·h/mL; AUC Extrap [4]: 320 ng·h/mL; Co [4]: 219 ng/mL; MRT [4]: 2 h; T1/2 [4]: 14 h
CN(C)CC1CNc2nc3ccc(OCCCN(C)Cc4ccc[nH]4)cc3n2C1 (stereo not shown) [IBIS00528636]	1.2	27.2	90	
CN(C)CCCn1c(N)nc2ccccc21 [drawing 62]				binding percentages of ligand to target [1]: 56% binding
CN(C)CC1CNc2nc3ccc(OCCCN(C)Cc4ccc(CO)o4)cc3n2C1 (stereo not shown) [IBIS00554889]	5.9	57.9	> 100	
CN(C)CC1CNc2nc3ccc(OCCCN(C)Cc4ccco4)cc3n2C1 (stereo not shown) [IBIS00554844]	1.7	4.9	> 100	
CN(C)CCn1c(N)nc2ccccc21				binding percentages of ligand to target [1]: 11%
CN(C)CCCn1c(N)nc2ccc3c(c21)CC(CN)CO3 (stereo not shown) [IBIS00560121]	17.2	42.7	> 100	
CN(C)CCCOc1ccc2nc(N)n(CCCN(C)C)c2c1 [drawing 70]				MS Target Selectivity ([1]; Table 3): ˜15; Kd ([1]; Table 3, read-out: Est. KD): ~10 µM
CN(C)CC1CNc2nc3ccc(OCCCN[C@@H]4CCN(Cc5ccccc5)C4)cc3n2C1 (stereo partly shown) [IBIS00528635]	1	42.3	90	
CNCC1COc2ccc3nc(N)n(CCCN(C)C)c3c2C1 (stereo not shown) [IBIS00560100]	3.1	51.6	> 100	
CN(C)CCCOc1ccc2nc(N)n(CCCN(C)C)c2c1 [drawing 69]				MS Target Selectivity ([1]; Table 2): ˜15; Kd ([1]; Table 2, read-out: Est. KD): ~10 µM
CN(C)CC1COc2ccc3nc4n(c3c2C1)CC(CN(C)C)CN4 (stereo not shown) [IBIS00560146]	21.1	5.4	> 100	
CN(C)CCCOc1ccc2nc3n(c2c1)CC(CN1CCCCC1)CN3 (stereo not shown) [IBIS00554807]	3.4	14.1	> 100	
